Patent publication US12091411B2, “IRAK degraders and uses thereof” (Kymera Therapeutics, Inc., priority 2022, dated 2024)
Where two headings read alike, the source gives them in different places.

Target: T1, IRAK4 (Homo sapiens, UniProt Q9NWZ3)
T1 construct: Degradation of IRAK4 in OCI-LY10 was quantitatively measured using Meso Scale Discovery technology; endogenous in cells; host or cells: OCI-LY10
T1 sequence (Q9NWZ3 1-460): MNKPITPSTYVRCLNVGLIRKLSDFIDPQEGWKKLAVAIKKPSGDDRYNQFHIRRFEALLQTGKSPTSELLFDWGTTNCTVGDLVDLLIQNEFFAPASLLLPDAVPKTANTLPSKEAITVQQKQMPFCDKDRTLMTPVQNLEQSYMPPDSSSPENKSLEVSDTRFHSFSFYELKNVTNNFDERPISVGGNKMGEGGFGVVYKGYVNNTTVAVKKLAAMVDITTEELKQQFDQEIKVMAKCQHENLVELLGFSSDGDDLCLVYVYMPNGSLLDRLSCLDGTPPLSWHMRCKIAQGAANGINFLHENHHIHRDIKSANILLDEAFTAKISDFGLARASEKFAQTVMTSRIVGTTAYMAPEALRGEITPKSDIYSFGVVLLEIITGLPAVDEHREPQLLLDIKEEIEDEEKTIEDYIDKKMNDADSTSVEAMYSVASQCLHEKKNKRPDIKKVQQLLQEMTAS
Experiment: IRAK4 MSD Degradation in OCI-LY10
Assay type: cell-based
Conditions: OCI-LY10 cells, MSD
How it was run: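 DC50, from a three-parameter logistic fit and reported as letter bins A (<0.01 μM), B, C, D (>0.2 μM or not tested), reflects IRAK4 loss measured by MSD electrochemiluminescence in OCI-LY10 lysates. Treatment: 8 doses, 1:3 steps, top 1 to 10 μM, 4 to 24 h, 37 °C.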

[1] = 4 hrs incubation, read-out: IRAK4 degradation in OCI-LY10 at 4 hrs: DC50
[2] = 24 hrs incubation, read-out: IRAK4 degradation in OCI-LY10 at 24 hrs: DC50

SMILES | DC50 [1] | DC50 [2]
Cn1c(=O)n(C2CCC(=O)NC2=O)c2cccc(CC[C@@H]3CN(C[C@H]4CC[C@H](n5cc(NC(=O)c6cnn7cccnc67)c(C(F)F)n5)CC4)CCO3)c21 (stereo partly shown) [I-397] | > 200 nM | > 200 nM
Cn1c(=O)n(C2CCC(=O)NC2=O)c2cccc(CC[C@@H]3CN(Cc4ccc(-n5cc(NC(=O)c6cnn7cccnc67)c(C(F)F)n5)cc4)CCO3)c21 (stereo partly shown) [I-398] | > 200 nM | > 200 nM
Cn1c(=O)n(C2CCC(=O)NC2=O)c2cccc(N3CCC4(CC3)CN(Cc3ccc(-n5cc(NC(=O)c6cnn7cccnc67)c(C(F)F)n5)cc3)C4)c21 (stereo not shown) [I-399] | < 10 nM | > 200 nM
Cn1c(=O)n(C2CCC(=O)NC2=O)c2cccc(N3CC4(CCN(Cc5ccc(-n6cc(NC(=O)c7cnn8ccc(N9C[C@H]%10C[C@@H]9CO%10)nc78)c(C(F)F)n6)cc5)CC4)C3)c21 (stereo partly shown) [I-400] | 10 to 100 nM | > 200 nM
Cn1c(=O)n(C2CCC(=O)NC2=O)c2cccc(OC3CC4(CCN(Cc5ccc(-n6cc(NC(=O)c7cnn8ccc(N9C[C@H]%10C[C@@H]9CO%10)nc78)c(C(F)F)n6)cc5)CC4)C3)c21 (stereo partly shown) [I-401] | > 200 nM | > 200 nM
Cn1c(=O)n(C2CCC(=O)NC2=O)c2cccc(CN3CC4(CCN(Cc5ccc(-n6cc(NC(=O)c7cnn8ccc(N9C[C@H]%10C[C@@H]9CO%10)nc78)c(C(F)F)n6)cc5)CC4)C3)c21 (stereo partly shown) [I-402] | > 200 nM | > 200 nM
Cn1c(=O)n(C2CCC(=O)NC2=O)c2cccc(N3CCN(C[C@H]4CC[C@H](n5cc(NC(=O)c6cnn7cccnc67)c(C(F)F)n5)CC4)CC3)c21 (stereo partly shown) [I-403] | > 200 nM | > 200 nM
Cn1c(=O)n(C2CCC(=O)NC2=O)c2cccc(N3CCC4C(C3)OCCN4C[C@H]3CC[C@H](n4cc(NC(=O)c5cnn6cccnc56)c(C(F)F)n4)CC3)c21 (stereo partly shown) [I-404] | > 200 nM | > 200 nM
C[C@H]1CN(c2ccn3ncc(C(=O)Nc4cn([C@H]5CC[C@H](CN6CCN(CC#Cc7cccc8c7n(C)c(=O)n8C7CCC(=O)NC7=O)CC6)CC5)nc4C(F)F)c3n2)CCO1 (stereo partly shown) [I-405] | > 200 nM | > 200 nM
C[C@@H]1CN(c2ccn3ncc(C(=O)Nc4cn([C@H]5CC[C@H](CN6CCN(CC#Cc7cccc8c7n(C)c(=O)n8C7CCC(=O)NC7=O)CC6)CC5)nc4C(F)F)c3n2)CCO1 (stereo partly shown) [I-406] | > 200 nM | < 10 nM
Cn1c(=O)n(C2CCC(=O)NC2=O)c2cccc(C#CCN3CCN(C[C@H]4CC[C@H](n5cc(NC(=O)c6cnn7ccc(N8CCOC(C(F)F)C8)nc67)c(C(F)F)n5)CC4)CC3)c21 (stereo partly shown) [I-407] | > 200 nM | > 200 nM
Cn1c(=O)n(C2CCC(=O)NC2=O)c2cccc(C#CCN3CCN(C[C@H]4CC[C@H](n5cc(NC(=O)c6cnn7ccc(N8CCN(C(F)(F)F)CC8)nc67)c(C(F)F)n5)CC4)CC3)c21 (stereo partly shown) [I-408] | > 200 nM | > 200 nM
Cn1c(=O)n(C2CCC(=O)NC2=O)c2cccc(C#CCN3CCN(C[C@H]4CC[C@H](n5cc(NC(=O)c6cnn7ccc(N8CCN(CC(F)F)CC8)nc67)c(C(F)F)n5)CC4)CC3)c21 (stereo partly shown) [I-409] | > 200 nM | > 200 nM
Cn1c(=O)n(C2CCC(=O)NC2=O)c2cccc(C#CCN3CCN(C[C@H]4CC[C@H](n5cc(NC(=O)c6cnn7ccc(N8CCN(CC(F)(F)F)CC8)nc67)c(C(F)F)n5)CC4)CC3)c21 (stereo partly shown) [I-410] | > 200 nM | > 200 nM
CN1CCN(c2ccn3ncc(C(=O)Nc4cn([C@H]5CC[C@H](CN6CCN(CC#Cc7cccc8c7n(C)c(=O)n8C7CCC(=O)NC7=O)CC6)CC5)nc4C(F)F)c3n2)CC1C(F)F (stereo partly shown) [I-411] | > 200 nM | > 200 nM
CN1CCN(c2ccn3ncc(C(=O)Nc4cn([C@H]5CC[C@H](CN6CCN(CC#Cc7cccc8c7n(C)c(=O)n8C7CCC(=O)NC7=O)CC6)CC5)nc4C(F)F)c3n2)CC1C(F)(F)F (stereo partly shown) [I-412] | > 200 nM | > 200 nM
CN1CCC(c2ccn3ncc(C(=O)Nc4cn([C@H]5CC[C@H](CN6CCN(CC#Cc7cccc8c7n(C)c(=O)n8C7CCC(=O)NC7=O)CC6)CC5)nc4C(F)F)c3n2)C(F)(F)C1 (stereo partly shown) [I-413] | > 200 nM | > 200 nM
Cn1c(=O)n(C2CCC(=O)NC2=O)c2cccc(C#CCN3CCN(C[C@H]4CC[C@H](n5cc(NC(=O)c6cnn7ccc(N8CC(F)(F)C8)nc67)c(C(F)F)n5)CC4)CC3)c21 (stereo partly shown) [I-414] | 100 to 200 nM | > 200 nM
Cn1c(=O)n(C2CCC(=O)NC2=O)c2cccc(-c3cc(CN4CCn5cc(-n6cc(NC(=O)c7cnn8cccnc78)c(C(F)F)n6)cc5C4)ncn3)c21 (stereo not shown) [I-415] | > 200 nM | > 200 nM

SMILES | DC50 [1] | DC50 [2]
Cn1c(=O)n(C2CCC(=O)NC2=O)c2cccc(N3CCC(N4CCn5cc(-n6cc(NC(=O)c7cnn8cccnc78)c(C(F)F)n6)cc5C4)CC3)c21 (stereo not shown) [I-416] | > 200 nM | > 200 nM
Cn1c(=O)n(C2CCC(=O)NC2=O)c2cccc(-c3ccc(N4CCc5cc(-n6cc(NC(=O)c7cnn8cccnc78)c(C(F)F)n6)ccc5C4)nc3)c21 (stereo not shown) [I-417] | > 200 nM | > 200 nM
Cn1c(=O)n(C2CCC(=O)NC2=O)c2cccc(C#CCN3CCN(C[C@H]4CC[C@H](n5cc(NC(=O)c6cnn7ccc(N8CC[C@]9(CCOC9)C8)nc67)c(C(F)F)n5)CC4)CC3)c21 (stereo partly shown) [I-418] | 10 to 100 nM | > 200 nM
Cn1c(=O)n(C2CCC(=O)NC2=O)c2cccc(C#CCN3CCN(C[C@H]4CC[C@H](n5cc(NC(=O)c6cnn7ccc(N8CC[C@@]9(CCOC9)C8)nc67)c(C(F)F)n5)CC4)CC3)c21 (stereo partly shown) [I-419] | 10 to 100 nM | > 200 nM
Cn1c(=O)n(C2CCC(=O)NC2=O)c2cccc(C#CCOC3CCN([C@H]4CC[C@@H](n5cc(NC(=O)c6cnn7ccc(N8C[C@H]9C[C@@H]8CO9)nc67)c(C(F)F)n5)CC4)CC3)c21 (stereo partly shown) [I-420] | > 200 nM | > 200 nM
Cn1c(=O)n(C2CCC(=O)NC2=O)c2cccc(C#CCN3CCN([C@H]4CC[C@@H](n5cc(NC(=O)c6cnn7ccc(N8C[C@H]9C[C@@H]8CO9)nc67)c(C(F)F)n5)CC4)CC3)c21 (stereo partly shown) [I-421] | 10 to 100 nM | > 200 nM
Cn1c(=O)n(C2CCC(=O)NC2=O)c2cccc(N3CCC(N4CCN([C@H]5CC[C@@H](n6cc(NC(=O)c7cnn8ccc(N9C[C@H]%10C[C@@H]9CO%10)nc78)c(C(F)F)n6)CC5)CC4)CC3)c21 (stereo partly shown) [I-422] | > 200 nM | > 200 nM
Cn1c(=O)n(C2CCC(=O)NC2=O)c2cccc(C3CCN(C4CCN(C5CCC(n6cc(NC(=O)c7cnn8ccc(N9C[C@H]%10C[C@@H]9CO%10)nc78)c(C(F)F)n6)CC5)CC4)CC3)c21 (stereo partly shown) [I-423] | > 200 nM | > 200 nM
Cn1c(=O)n(C2CCC(=O)NC2=O)c2cccc(N3CCN([C@H]4CC[C@@H](n5cc(NC(=O)c6cnn7ccc(N8C[C@H]9C[C@@H]8CO9)nc67)c(C(F)F)n5)CC4)CC3)c21 (stereo partly shown) [I-424] | > 200 nM | > 200 nM
Cn1c(=O)n(C2CCC(=O)NC2=O)c2cccc(C#CCN3CCN(C[C@H]4CC[C@H](n5cc(NC(=O)c6cnn7ccc(C8CCOC8)nc67)c(C(F)F)n5)CC4)CC3)c21 (stereo partly shown) [I-426] | 10 to 100 nM | > 200 nM
C[C@H]1CN(c2ccn3ncc(C(=O)Nc4cn([C@H]5CC[C@H](CN(C)C6CCN(c7cccc8c7n(C)c(=O)n8C7CCC(=O)NC7=O)CC6)CC5)nc4C(F)F)c3n2)CCO1 (stereo partly shown) [I-427] | > 200 nM | < 10 nM
C[C@@H]1CN(c2ccn3ncc(C(=O)Nc4cn([C@H]5CC[C@H](CN(C)C6CCN(c7cccc8c7n(C)c(=O)n8C7CCC(=O)NC7=O)CC6)CC5)nc4C(F)F)c3n2)CCO1 (stereo partly shown) [I-428] | > 200 nM | < 10 nM
C[C@@H]1CN(c2ccn3ncc(C(=O)Nc4cn([C@H]5CC[C@H](CN6CCN(CC#Cc7cccc8c7n(C)c(=O)n8C7CCC(=O)NC7=O)CC6)CC5)nc4C(F)F)c3n2)C[C@H](C)O1 (stereo partly shown) [I-429] | > 200 nM | > 200 nM
C[C@H]1CN(c2ccn3ncc(C(=O)Nc4cn([C@H]5CC[C@H](CN6CCN(CC#Cc7cccc8c7n(C)c(=O)n8C7CCC(=O)NC7=O)CC6)CC5)nc4C(F)F)c3n2)C[C@H](C)O1 (stereo partly shown) [I-430] | > 200 nM | < 10 nM
C[C@@H]1CN(c2ccn3ncc(C(=O)Nc4cn([C@H]5CC[C@H](CN6CCN(CC#Cc7cccc8c7n(C)c(=O)n8C7CCC(=O)NC7=O)CC6)CC5)nc4C(F)F)c3n2)C[C@@H](C)O1 (stereo partly shown) [I-431] | > 200 nM | < 10 nM
[2H]C([2H])([2H])Oc1ccc2c(c1C1CCN(C[C@H]3CC[C@H](n4cc5cc(NC(=O)c6cccc(C(F)(F)F)n6)ncc5n4)CC3)CC1)n(C([2H])([2H])[2H])c(=O)n2C1CCC(=O)NC1=O (stereo partly shown) [I-432] | > 200 nM | < 10 nM
Cn1c(=O)n(C2CCC(=O)NC2=O)c2cccc(C#CCOC3CCN(C[C@H]4CC[C@H](n5cc(NC(=O)c6cnn7ccc(N8CCC(F)(F)CC8)nc67)c(C(F)F)n5)CC4)CC3)c21 (stereo partly shown) [I-433] | > 200 nM | < 10 nM
Cn1c(=O)n(C2CCC(=O)NC2=O)c2cccc(C#CCN3CCN(C[C@H]4CC[C@H](n5cc(NC(=O)c6cnn7ccc(N8CCC(F)(F)CC8)nc67)c(C(F)F)n5)CC4)CC3)c21 (stereo partly shown) [I-434] | > 200 nM | < 10 nM
O=C1CCN(c2cccc(C#CCN3CCN(C[C@H]4CC[C@@H](n5cc(NC(=O)c6cnn7ccc(N8CC9CCC(C8)O9)nc67)c(C(F)F)n5)CC4)CC3)c2)C(=O)N1 [I-435] | > 200 nM | > 200 nM
